Source: patent US12662480B2, “Microbiocidal derivatives” (SYNGENTA CROP PROTECTION AG, priority 2020, dated 2026)

Experiments:
[1] = system: Puccinia recondita f. sp. tritici; test: Puccinia recondita f. sp. tritici / wheat / leaf disc curative (brown rust); type: in vivo; conditions: foliar, 24 h, wheat leaf segments cv. Kanzler, compound applied 1 day after inoculation, compared to untreated control
Procedure: Example B9: Puccinia recondita f. Sp. Tritici/Wheat/Leaf Disc Curative (Brown Rust) Wheat leaf segments cv. Kanzler are placed on agar in multiwell plates (24-well format). The leaf segments are inoculated with a spore suspension of the fungus. Plates are stored in darkness at 19° C. and 75% rh. The formulated test compound diluted in water is applied 1 day after inoculation. The leaf segments are incubated at 19° C. and 75% rh under a light regime of 12 h light/12 h darkness in a climate cabinet and the activity of a compound is assessed as percent disease control compared to untreated when an appropriate level of disease damage appears in untreated check leaf segments (6-8 days after application). […] […]-9, and P-11.

[2] = system: Puccinia recondita f. sp. tritici; test: Puccinia recondita f. sp. tritici / wheat / leaf disc preventative (brown rust); type: in vivo; conditions: foliar, wheat leaf segments cv. Kanzler, inoculated 1 day after application, compared to untreated control
Procedure: Example B10: Puccinia recondita f. Sp. Tritici/Wheat/Leaf Disc Preventative (Brown Rust) Wheat leaf segments cv. Kanzler are placed on agar in multiwell plates (24-well format) and sprayed with the formulated test compound diluted in water. The leaf disks are inoculated with a spore suspension of the fungus 1 day after application. The inoculated leaf segments are incubated at 19° C. and 75% rh under a light regime of 12 h light/12 h darkness in a climate cabinet and the activity of a compound is assessed as percent disease control compared to untreated when an appropriate level of disease damage appears in untreated check leaf segments (7-9 days after application). […] […]-10, and P-11.

Structure (SMILES)	pest or weed control at 200 ppm [1] [%]	pest or weed control at 200 ppm [2] [%]
Cc1sc(N(C(=O)C(C)OC(C)C)c2cc(F)nc(F)c2)nc1C(=O)NC1CCC1(C)C (stereo not drawn) [Compound P-6, 2-[(2,6-difluoro-4-pyridyl)-(2-isopropoxypropanoyl)amino]-N-(2,2-dimethylcyclobutyl)-5-methyl-thiazole-4-carboxamide]	≥ 80	≥ 80
Cc1sc(N(C(=O)C2CCOC2)c2cc(F)nc(F)c2)nc1C(=O)NC1CCC1(C)C (stereo not drawn) [Compound P-3, 2-[(2,6-difluoro-4-pyridyl)-(tetrahydrofuran-3-carbonyl)amino]-N-(2,2-dimethylcyclobutyl)-5-methyl-thiazole-4-carboxamide]	≥ 80	≥ 80
Cc1sc(N(C(=O)C(C)OC(C)(C)C)c2cc(F)nc(F)c2)nc1C(=O)NC1CCC1(C)C (stereo not drawn) [Compound P-5, 2-[2-tert-butoxypropanoyl-(2,6-difluoro-4-pyridyl)amino]-N-(2,2-dimethylcyclobutyl)-5-methyl-thiazole-4-carboxamide]	≥ 80	≥ 80
COC(C)C(=O)N(c1cc(F)nc(F)c1)c1nc(C(=O)NC2CCC2(C)C)c(C)s1 (stereo not drawn) [Compound P-9, 2-[(2,6-difluoro-4-pyridyl)-(2-methoxypropanoyl)amino]-N-(2,2-dimethylcyclobutyl)-5-methyl-thiazole-4-carboxamide]	≥ 80	≥ 80
Cc1sc(N(C(=O)C(C)S(C)(=O)=O)c2cc(F)nc(F)c2)nc1C(=O)NC1CCC1(C)C (stereo not drawn) [Compound P-10, 2-[(2,6-difluoro-4-pyridyl)-(2-methylsulfonylpropanoyl)amino]-N-(2,2-dimethylcyclobutyl)-5-methyl-thiazole-4-carboxamide]		≥ 80
Cc1sc(N(C(=O)C2COC2)c2cc(F)nc(F)c2)nc1C(=O)NC1CCC1(C)C (stereo not drawn) [Compound P-4, 2-[(2,6-difluoro-4-pyridyl)-(oxetane-3-carbonyl)amino]-N-(2,2-dimethylcyclobutyl)-5-methyl-thiazole-4-carboxamide]	≥ 80	≥ 80
Cc1sc(N(C(=O)COC(C)(C)C)c2cc(F)nc(F)c2)nc1C(=O)NC1CCC1(C)C (stereo not drawn) [Compound P-7, 2-[(2-tert-butoxyacetyl)-(2,6-difluoro-4-pyridyl)amino]-N-(2,2-dimethylcyclobutyl)-5-methyl-thiazole-4-carboxamide]		≥ 80
Cc1sc(N(C(=O)C2CCOC2)c2cc(F)nc(F)c2)nc1C(=O)N(C(=O)C1CCOC1)C1CCC1(C)C (stereo not drawn) [Compound P-1, 2-[(2,6-difluoro-4-pyridyl)-(tetrahydrofuran-3-carbonyl)amino]-N-(2,2-dimethylcyclobutyl)-5-methyl-N-(tetrahydrofuran-3-carbonyl)thiazole-4-carboxamide]	≥ 80	≥ 80
Cc1sc(N(C(=O)C2CCCO2)c2cc(F)nc(F)c2)nc1C(=O)NC1CCC1(C)C (stereo not drawn) [Compound P-2, 2-[(2,6-difluoro-4-pyridyl)-(tetrahydrofuran-2-carbonyl)amino]-N-(2,2-dimethylcyclobutyl)-5-methyl-thiazole-4-carboxamide]	≥ 80	≥ 80
Cc1sc(N(C(=O)C2CCOCC2)c2cc(F)nc(F)c2)nc1C(=O)NC1CCC1(C)C (stereo not drawn) [Compound P-11, 2-[(2,6-difluoro-4-pyridyl)-(tetrahydropyran-4-carbonyl)amino]-N-(2,2-dimethylcyclobutyl)-5-methyl-thiazole-4-carboxamide]	≥ 80	≥ 80
